One test concerns the target T1, PIP4K2B (Homo sapiens, UniProt P78356).
T1 construct: made in house; host or cells: E. coli
T1 sequence (P78356 1-416): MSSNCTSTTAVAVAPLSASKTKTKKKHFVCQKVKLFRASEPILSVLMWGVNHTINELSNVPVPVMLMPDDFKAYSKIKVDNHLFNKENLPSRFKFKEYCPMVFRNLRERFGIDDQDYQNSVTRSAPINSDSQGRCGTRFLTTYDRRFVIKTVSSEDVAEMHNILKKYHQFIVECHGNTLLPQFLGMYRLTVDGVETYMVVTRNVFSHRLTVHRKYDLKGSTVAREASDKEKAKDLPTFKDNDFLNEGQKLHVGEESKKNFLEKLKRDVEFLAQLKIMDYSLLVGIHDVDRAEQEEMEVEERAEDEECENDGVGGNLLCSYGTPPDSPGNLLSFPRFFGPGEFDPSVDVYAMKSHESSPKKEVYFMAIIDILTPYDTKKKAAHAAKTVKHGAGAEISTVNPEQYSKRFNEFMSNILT
The test is described as follows: Trans-FI P kinase assay PIP4K2B (Table 4). It is filed as biochemical. As to conditions: compounds listed under IC50 bins; read-out: Trans-FI P kinase assays: PIP4K2B IC50. From the text:
GST tagged PIP4KtypeIIA and B enzymes were overexpressed in E. Coli and purified to >80% homogeneity. Phosphatidyl inositol-5-phosphate (PI5P, Cat. #850152, Avanti Polar Lipids Inc.) was used as the lipid substrate and phosphatidyl ethanolamine (DOPE 18:1, Cat. #850725, Avanti Polar Lipids Inc.) was used as the carrier lipid for assays. Ultrapure ATP and GTP was purchased from Bellbrooke Labs. ADP Glo reagents were obtained from Promega. Transcreener FI reagent was obtained from Bellbrooke labs.
GST-tagged PIP4KtypeIIB (3.4 μL, 2.77 mg/mL) was diluted to 5 mL using HNE buffer to yield 5× enzyme stock (25 nM)
Lipid Preparation: In a 10 mL pyrex glass vial, […] were suspended in 2.5 mL of HEPES buffer mix and 2.5 mL of H:E buffer. The contents were mixed and sonicated for 3 min to yield a translucent lipid stock.
Compound Preparation: Compounds were stored as 5 mM stocks in neat DMSO as room temperature in glass vials. 5 mM stocks were diluted to 2 mM and then serially diluted (3×) in neat DMSO in 96 well polypropylene plates. From the serially diluted stocks, 3 μL was delivered into 250 μL of 25% DMSO (in water) to generate 5× compound stocks. Typically, the highest compound conc. was 24 μM.
The assay volume was kept at 25 μL. To each well of the reaction plate, 10 μL of lipid stock (1:1 ratio PI5P:DOPE) was delivered. This was followed by the addition of 5 μL of compound in 25% DMSO. Then, to each well, 5 μL of 25 nM (5×) typeIIB enzyme was delivered. The contents were mixed well and incubated for 1 h at 27° C. After 1 h, reaction was initiated by adding 5 μL of 500 μM GTP and the contents were mixed well with a multi-channel pipetteman. The final concentration of the reagents are as follows: 50 mM HEPES, pH 7.3, 10 mM MgCl2, 20 mM NaCl, 0.01% v/v triton-X100, 5% DMSO, 100 μM GTP, 80 μM (2 μg) PI5P, 2 μg DOPE, and 5 nM PIP4KIIB Typically, the highest conc. of compounds was 4.8 μM and the lowest conc. was 0.
After 2 h, the reaction was quenched by adding 25 μL of transcreener FI reagent. The contents were incubated at rt for 1 h and the Fluorescence (Ex: 584 Em: 623) was read using Molecular Devices Paradigm plate reader. […] The blanks were averaged and subtracted from all other wells. Using a calibration curve, RFU was converted to μM GDP (product). IC50 was calculated by plotting the residual activity (expressed as % No inhibitor control) vs. log [Inh. conc.]

In the next test the target is T2, PIP4K2A (Homo sapiens, UniProt P48426).
T2 sequence (P48426 1-406): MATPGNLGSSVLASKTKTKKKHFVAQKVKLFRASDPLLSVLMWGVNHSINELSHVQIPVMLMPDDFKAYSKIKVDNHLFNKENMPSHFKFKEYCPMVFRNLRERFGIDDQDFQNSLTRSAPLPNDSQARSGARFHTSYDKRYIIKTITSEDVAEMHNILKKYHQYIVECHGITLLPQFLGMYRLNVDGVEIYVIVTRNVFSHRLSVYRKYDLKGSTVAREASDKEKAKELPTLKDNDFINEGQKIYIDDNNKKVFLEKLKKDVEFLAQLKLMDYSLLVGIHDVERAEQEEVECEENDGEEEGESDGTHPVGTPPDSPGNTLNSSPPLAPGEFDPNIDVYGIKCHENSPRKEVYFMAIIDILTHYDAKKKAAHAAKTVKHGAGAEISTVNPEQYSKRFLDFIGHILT
Description: Kinase Assay PIP4K2 A (Table 2). It is filed as biochemical. Set-up: 4 nM PIP4K2A (full length protein, SignalChem); purchased SignalChem. As to conditions: compounds listed under IC50 bins. On the procedure: Dilution series of the compounds were prepared in DMSO at 100 times the final assay concentration (n1=n0/3 in 10 points). The compounds were further diluted to three times the assay concentration in assay buffer (20 mM MOPS pH 7.2, 25 mM magnesium chloride, 0.005% Tween 20). 6 μL of the diluted compounds were added to a 384 well assay plate followed by 9 μL of a mix consisting of 4 nM PIP4K2A (full length protein, SignalChem) and 100 μM PI(5)P diC8 (Tebu-Bio). Enzyme and compounds were pre-incubated at room temperature for 15 minutes.
Then 3 μL of a solution containing 60 μM ATP (Promega) in assay buffer was added to the wells containing compound and enzyme and mixing was performed by pipetting several times. The reaction was incubated at room temperature for 1 h. Then 18 μL of ADP-Glo™ Reagent (Promega) was added to stop the kinase reaction and deplete the unconsumed ATP, mixing was performed by pipetting several times. The plate was incubated at room temperature for 40 minutes before addition of 36 μL of Kinase Detection Reagent (Promega) to convert ADP to ATP and introduce luciferase and luciferin to detect ATP. The reaction was incubated at room temperature for 40 minutes before the luminescence was measured in a in a Victor 3V 1420 multilabel counter (Perkin Elmer).
Percent inhibition of the compounds as compared to dimethyl sulfoxide treated control samples was calculated. Compound concentration versus percent inhibition were fitted to generate IC50 values.

Each structure is given as a SMILES string.

In general, IC50 refers to the concentration needed to halve the response being measured. Turning to `COc1nc(Nc2cnc3c(c2)N2C(=O)CC[C@H]2CO3)ncc1-c1ccc(C(=O)N(C)C)cc1` [Example 294, (S)-4-(4-methoxy-2-((9-oxo-6a,7,8,9-tetrahydro-6H-pyrido[2,3-b]pyrrolo[1,2-d][1,4]oxazin-2-yl)amino)pyrimidin-5-yl)-N,N-dimethylbenzamide], the IC50 on PIP4K2B and against PIP4K2A was 1 to 10 nM each time.

For `CN1CCN(c2nc(Nc3cnc4c(c3)N3C(=O)CC[C@H]3CO4)ncc2-c2ccc(N3CCCC3=O)cc2)CC1` [Example 281, (S)-2-((4-(4-methylpiperazin-1-yl)-5-(4-(2-oxopyrrolidin-1-yl)phenyl)pyrimidin-2-yl)amino)-6,6a,7,8-tetrahydro-9H-pyrido[2,3-b]pyrrolo[1,2-d][1,4]oxazin-9-one], the IC50 lay within 10 to 100 nM on PIP4K2B and 1 to 10 nM against PIP4K2A.

Regarding `COC1CN(c2nc(Nc3cnc4c(c3)N3C(=O)CC[C@H]3CO4)ncc2-c2ccc(N3CCCC3=O)cc2)C1` [Example 286, (S)-2-((4-(3-methoxyazetidin-1-yl)-5-(4-(2-oxopyrrolidin-1-yl)phenyl)pyrimidin-2-yl)amino)-6,6a,7,8-tetrahydro-9H-pyrido[2,3-b]pyrrolo[1,2-d][1,4]oxazin-9-one], the IC50 on PIP4K2B and on PIP4K2A was 1 to 10 nM in each case.

For the compound `O=C1CCCN1c1ccc(-c2cnc(Nc3cnc4c(c3)N3C(=O)CC[C@H]3CO4)nc2N2CCOCC2)cc1` [Example 280, (S)-2-((4-morpholino-5-(4-(2-oxopyrrolidin-1-yl)phenyl)pyrimidin-2-yl)amino)-6,6a,7,8-tetrahydro-9H-pyrido[2,3-b]pyrrolo[1,2-d][1,4]oxazin-9-one], the IC50 on PIP4K2B is 1 to 10 nM; against PIP4K2A, not above 1 nM.

With `COC(=O)N1CCOc2ncc(Nc3ccc(-c4ccc(C(=O)N(C)C)cc4)cn3)cc21` [Example 93, methyl 7-((5-(4-(dimethylcarbamoyl)phenyl)pyridin-2-yl)amino)-2,3-dihydro-1H-pyrido[2,3-b][1,4]oxazine-1-carboxylate], the IC50 was 10 to 100 nM on PIP4K2B and 1 to 10 nM against PIP4K2A.

In the case of `CN(C)C(=O)c1ccc(-c2ccc(Nc3cnc4c(c3)NC(=O)CO4)nc2)cc1` [Example 88, N,N-dimethyl-4-(6-((2-oxo-2,3-dihydro-1H-pyrido[2,3-b][1,4]oxazin-7-yl)amino)pyridin-3-yl)benzamide], the half-inhibitory concentration (IC50) at PIP4K2B was more than 1000 nM; at PIP4K2A, 100 to 1000 nM.

For the compound `CN1C[C@H]2COc3ncc(Nc4ccc(-c5ccc(N6CCCC6=O)cc5)cn4)cc3N2S1(=O)=O` [Example 175, (S)-1-(4-(6-((2-methyl-1,1-dioxido-2,3,3a,4-tetrahydropyrido[2,3-b][1,2,5]thiadiazolo[2,3-d][1,4]oxazin-8-yl)amino)pyridin-3-yl)phenyl)pyrrolidin-2-one], the IC50 at PIP4K2B is 10 to 100 nM; on PIP4K2A it was 100 to 1000 nM.

On to `COc1nc(Nc2cnc3c(c2)N2C(=O)CC[C@H]2CO3)ncc1-c1ccc(-c2nncn2C)cc1` [Example 287, (S)-2-((4-methoxy-5-(4-(4-methyl-4H-1,2,4-triazol-3-yl)phenyl)pyrimidin-2-yl)amino)-6,6a,7,8-tetrahydro-9H-pyrido[2,3-b]pyrrolo[1,2-d][1,4]oxazin-9-one], for which the IC50 on PIP4K2B and against PIP4K2A was 1 to 10 nM in each case.

On PIP4K2A, `CN(C)C(=O)c1ccc(-c2cnc(Nc3cncc(N4CCCC4=O)c3)cn2)c(F)c1` [Example 21, 3-fluoro-N,N-dimethyl-4-(5-((5-(2-oxopyrrolidin-1-yl)pyridin-3-yl)amino)pyrazin-2-yl)benzamide] returned an IC50 of 100 to 1000 nM.

As for `CN(C)C(=O)c1ccc(-c2ccc(Nc3cncc(C4(C(N)=O)CC4)c3)nc2)cc1` [Example 41, 4-(6-((5-(1-carbamoylcyclopropyl)pyridin-3-yl)amino)pyridin-3-yl)-N,N-dimethylbenzamide], the IC50 on PIP4K2A is 100 to 1000 nM.

`CN(C)C(=O)c1ccc(-c2ccc(Nc3cc[nH]c(=O)c3)nc2)cc1` [Example 221, N,N-dimethyl-4-(6-((2-oxo-1,2-dihydropyridin-4-yl)amino)pyridin-3-yl)benzamide] gave an IC50 against PIP4K2A of more than 1000 nM.

`CN(C)C(=O)c1ccc(-c2ccc(Nc3cncc(CCN4CCOCC4)c3)nc2)cc1` [Example 48, N,N-dimethyl-4-(6-((5-(2-morpholinoethyl)pyridin-3-yl)amino)pyridin-3-yl)benzamide] displayed an IC50 against PIP4K2A of 100 to 1000 nM.

As for `CN(C)C(=O)[C@H]1CC[C@H](c2ccc(Nc3cccnc3)nc2)CC1` [Example 7, (r,4r)-N,N-dimethyl-4-(6-(pyridin-3-ylamino)pyridin-3-yl)cyclohexane-1-carboxamide], the IC50 at PIP4K2A was more than 1000 nM.

Take `CN(C)C(=O)c1ccc(-c2ccc(Nc3cccnc3)nc2)cn1` [Example 3, N,N-dimethyl-6′-(pyridin-3-ylamino)-[3,3′-bipyridine]-6-carboxamide]: the IC50 at PIP4K2A was more than 1000 nM.

Consider `O=C1CCCN1c1ccc(-c2ccc(Nc3cccnc3)nc2)cc1` [Example 82, 1-(4-(6-(pyridin-3-ylamino)pyridin-3-yl)phenyl)pyrrolidin-2-one], for which the IC50 against PIP4K2A is 100 to 1000 nM.

Compound `CN(C)C(=O)c1ccc(-c2ccc(Nc3cccnc3)nc2)s1` [Example 5, N,N-dimethyl-5-(6-(pyridin-3-ylamino)pyridin-3-yl)thiophene-2-carboxamide] yielded an IC50 on PIP4K2A of more than 1000 nM.

For the compound `Cc1cc(Nc2cccnc2)ncc1-c1ccc(C(=O)N(C)C)cc1` [Example 16, N,N-dimethyl-4-(4-methyl-6-(pyridin-3-ylamino)pyridin-3-yl)benzamide], the IC50 against PIP4K2A lay in the range of 100 to 1000 nM.

The compound `CN(C)C(=O)c1ccc(-c2ccc(Nc3cncc(N4CCOCC4=O)c3)nc2)cc1` [Example 47, N,N-dimethyl-4-(6-((5-(3-oxomorpholino)pyridin-3-yl)amino)pyridin-3-yl)benzamide] had an IC50 at PIP4K2A of 100 to 1000 nM.

The record behind these values is patent US11667651B2, “Aminopyridine derivatives as phosphatidylinositol phosphate kinase inhibitors” (HiberCell, Inc., priority 2017, dated 2023).
